From PMC10746543, “Design principles for cyclin K molecular glue degraders” (Nature Chemical Biology, 2023)
Several values for one entry are separate records, joined by “and”; a condition that tells them apart may be missing. Equal values may be shown once. Read-outs that look alike come from different tables or passages of the source.

Tests used:
[1] = tested on: HEK293T cells; assay: Drug sensitivity assay (CellTiter-Glo viability) with or without MLN4924 pretreatment; assay type: cell-based, human; conditions: Supplementary Table 2; for EC50: Homo sapiens, HEK-293T, HEK293T viability, 72 h, compound alone, read-out: Cellular assays EC50; for Toxicity rescue: MLN4924-mediated cytotoxicity rescue, 10 µM used where n.d.
Summary of the method: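 Luminescent ATP read-out (CellTiter-Glo) after 3 days of drug exposure, normalised to DMSO controls. Cells were HEK293T–Cas9, pretreated with 100 nM MLN4924 or DMSO for 2 h before drug dispensing.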

[2] = tested on: cyclin K–eGFP degradation reporter; assay: Cyclin K reporter stability analysis (dual-color cyclin K–eGFP reporter); assay type: cell-based, human
Summary of the method: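 Cells (HEK293T–Cas9, reporter-expressing) at 1 × 10^6 ml^−1; 5 h compound or DMSO; flow cytometry; gMFI eGFP ÷ mCherry on round mCherry-positive events; normalized to 3 DMSO controls.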

[3] = target: T1, CDK12–cyclin K and DDB1 (Homo sapiens, UniProt Q16531+Q9NYV4, K965R); assay: TR-FRET ternary complex formation assay (compound titration); assay type: binding; conditions: for TR-FRET signal at compound concentration: replicate titrations
T1 construct: His6–CDK12 (a.a. 713–1,052); full-length or beta-propeller B domain deletion (ΔBPB: a.a. 396–705 deleted) constructs of His6–DDB1ΔBPB, StrepII–Avi–DDB1, or His6–Spy–DDB1; made in house; host or cells: Trichoplusia ni High Five insect cells (baculovirus)
Summary of the method: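 TR-FRET ratio 520/490 nm; 70 μs delay before read to suppress background.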

[4] = source data sheet correlations, read-out: DC50
[5] = compound concentration 0.468 nM
[6] = compound concentration 7.92001 nM
[7] = compound concentration 15.84 nM
[8] = compound concentration 30.96 nM
[9] = compound concentration 62.6401 nM
[10] = compound concentration 125.28 nM
[11] = compound concentration 244.8 nM
[12] = compound concentration 993.601 nM
[13] = compound concentration 2001.6 nM
[14] = in vitro complex formation, 50 nM CDK12–cyclin K, 100 nM DDB1, text and figures, read-out: TR-FRET EC50
[15] = sheet MOESM7, read-out: log TR-FRET EC50 (converted)
[16] = source data sheet correlations, read-out: TR-FRET EC50

T1 sequence (Q9NYV4 713-1052 K965R): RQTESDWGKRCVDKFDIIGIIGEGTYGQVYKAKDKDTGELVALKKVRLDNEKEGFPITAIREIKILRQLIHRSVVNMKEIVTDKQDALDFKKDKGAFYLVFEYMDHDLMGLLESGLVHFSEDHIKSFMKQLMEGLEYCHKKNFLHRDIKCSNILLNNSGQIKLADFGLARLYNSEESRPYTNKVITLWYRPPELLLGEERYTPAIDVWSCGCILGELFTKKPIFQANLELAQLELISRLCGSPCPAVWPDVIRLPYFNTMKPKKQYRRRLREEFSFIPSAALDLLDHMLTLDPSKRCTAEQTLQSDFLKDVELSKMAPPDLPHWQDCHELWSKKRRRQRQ
T1 sequence (O75909 1-267 partner): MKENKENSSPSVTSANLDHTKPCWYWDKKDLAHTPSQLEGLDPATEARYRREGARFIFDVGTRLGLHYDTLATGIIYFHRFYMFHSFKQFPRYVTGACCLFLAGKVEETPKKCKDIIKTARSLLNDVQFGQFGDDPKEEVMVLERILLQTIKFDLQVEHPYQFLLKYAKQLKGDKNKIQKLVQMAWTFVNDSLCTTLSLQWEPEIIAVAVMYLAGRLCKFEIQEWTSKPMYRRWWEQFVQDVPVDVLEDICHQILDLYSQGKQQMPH
T1 sequence (Q16531 whole entry): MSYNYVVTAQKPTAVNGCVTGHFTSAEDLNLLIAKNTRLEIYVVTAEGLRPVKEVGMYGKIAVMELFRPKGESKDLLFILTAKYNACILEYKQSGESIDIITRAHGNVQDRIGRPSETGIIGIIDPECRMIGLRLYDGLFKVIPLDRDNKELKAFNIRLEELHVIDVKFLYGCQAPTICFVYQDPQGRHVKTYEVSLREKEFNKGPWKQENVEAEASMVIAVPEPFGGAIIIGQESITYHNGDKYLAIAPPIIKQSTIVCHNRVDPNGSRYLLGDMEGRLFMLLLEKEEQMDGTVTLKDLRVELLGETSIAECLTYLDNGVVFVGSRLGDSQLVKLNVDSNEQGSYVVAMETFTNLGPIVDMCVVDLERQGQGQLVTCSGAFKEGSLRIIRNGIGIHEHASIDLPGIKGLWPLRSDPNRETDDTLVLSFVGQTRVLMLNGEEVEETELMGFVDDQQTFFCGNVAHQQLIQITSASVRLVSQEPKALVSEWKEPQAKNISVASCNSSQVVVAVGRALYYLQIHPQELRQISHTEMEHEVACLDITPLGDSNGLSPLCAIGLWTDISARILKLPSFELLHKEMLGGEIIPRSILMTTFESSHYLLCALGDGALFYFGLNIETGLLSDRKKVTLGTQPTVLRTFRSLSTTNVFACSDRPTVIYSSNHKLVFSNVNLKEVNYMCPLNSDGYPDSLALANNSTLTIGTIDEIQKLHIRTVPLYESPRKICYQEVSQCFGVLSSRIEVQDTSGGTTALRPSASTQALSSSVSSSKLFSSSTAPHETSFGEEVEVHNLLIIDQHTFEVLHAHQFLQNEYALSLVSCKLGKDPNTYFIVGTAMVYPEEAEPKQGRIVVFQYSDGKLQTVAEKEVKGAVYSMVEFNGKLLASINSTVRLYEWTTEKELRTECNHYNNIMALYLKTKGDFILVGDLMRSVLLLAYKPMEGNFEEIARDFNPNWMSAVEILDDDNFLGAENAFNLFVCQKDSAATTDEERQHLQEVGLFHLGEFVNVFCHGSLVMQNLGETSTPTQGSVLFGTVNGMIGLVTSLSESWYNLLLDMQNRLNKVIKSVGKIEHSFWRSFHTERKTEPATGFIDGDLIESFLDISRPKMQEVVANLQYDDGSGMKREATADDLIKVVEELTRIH

| Structure (SMILES) | EC50 [1] [nM] | Toxicity rescue [1] [%] | DC50 [2, 4] [nM] | TR-FRET signal at compound concentration [3, 5] | TR-FRET signal at compound concentration ([3]; compound concentration 2.16 nM) | TR-FRET signal at compound concentration ([3]; compound concentration 3.6 nM) | TR-FRET signal at compound concentration [3, 6] | TR-FRET signal at compound concentration [3, 7] | TR-FRET signal at compound concentration [3, 8] | TR-FRET signal at compound concentration [3, 9] | TR-FRET signal at compound concentration [3, 10] | TR-FRET signal at compound concentration [3, 11] | TR-FRET signal at compound concentration [3, 12] | TR-FRET signal at compound concentration [3, 13] | EC50 [3, 14] [nM] | EC50 [3, 15] [nM] | EC50 [3, 16] [nM] | further results |
| --- | --- | --- | --- | --- | --- | --- | --- | --- | --- | --- | --- | --- | --- | --- | --- | --- | --- | --- |
| CC[C@H](CO)Nc1nc(NCCCc2cccc(C)n2)c2ncn(C(C)C)c2n1 [DS69] | 864 | 599 | 217 | 0.3264 and 0.326 | 0.4029 and 0.3893 | 0.5395 and 0.5039 | 0.8326 and 0.7539 | 1.268 and 1.146 | 1.86 and 1.701 | 2.3803 and 2.291 | 2.963 and 2.837 | 3.2576 and 3.227 | 3.4627 and 3.352 | 3.462 and 3.373 | 36 ± 1 | 35.9 | 35.9 | – |
| CCc1cccc(CCCNc2nc(N[C@H](CC)CO)nc3c2ncn3C(C)C)c1 [DS67] | 517 | 819 | 219 | 0.3354 and 0.3368 | 0.4163 and 0.4021 | 0.5886 and 0.5847 | 0.9073 and 0.903 | 1.493 and 1.552 | 2.297 and 2.228 | 3.049 and 3.013 | 3.561 and 3.406 | 3.933 and 3.877 | 4.034 and 4.0558 | 4.271 and 4.04 | 31 ± 1 | 30.5 | 30.5 | – |
| CC[C@H](CO)Nc1nc(NCCCc2ccncc2)c2ncn(C(C)C)c2n1 [DS27] | > 10000 | 0 | – | – | – | – | – | – | – | – | – | – | – | – | 456 ± 34 | – | – | DC50 ([2]; Supplementary Table 2, HEK293T cycK-eGFP reporter, 5 h, read-out: Cellular assays DC50): > 10000 nM; TR-FRET signal at compound concentration ([3]; compound concentration 4.68 nM): 0.135 and 0.1336; TR-FRET signal at compound concentration ([3]; compound concentration 21.6 nM): 0.1436 and 0.1394; TR-FRET signal at compound concentration ([3]; compound concentration 36 nM): 0.1546 and 0.1561; TR-FRET signal at compound concentration ([3]; compound concentration 79.2001 nM): 0.1838 and 0.187; TR-FRET signal at compound concentration ([3]; compound concentration 158.4 nM): 0.2226 and 0.2249; TR-FRET signal at compound concentration ([3]; compound concentration 309.6 nM): 0.2777 and 0.285; TR-FRET signal at compound concentration ([3]; compound concentration 626.401 nM): 0.3467 and 0.3568; TR-FRET signal at compound concentration ([3]; compound concentration 1252.8 nM): 0.4111 and 0.4466; TR-FRET signal at compound concentration ([3]; compound concentration 2448 nM): 0.4906 and 0.4799; TR-FRET signal at compound concentration ([3]; compound concentration 9936.01 nM): 0.5278 and 0.4844; TR-FRET signal at compound concentration ([3]; compound concentration 20016 nM): 0.4733 and 0.5319 |
